Results: patent publication EP0638573A1, “Crystalline hydrates of cephalosporin and process for preparation thereof” (LUCKY LTD., priority 1993, dated 1995)
In brackets after ≈: the same amount, converted by molar mass. Read-outs that look alike come from different tables or passages of the source.

Assays:
[1] = Heat-stability test: storage at 50°C, decomposition by liquid chromatography; assay type: physicochemical
Procedure: The crystalline hydrate of the compound obtained in Example 1 and the amorphous cephalosporin obtained in Preparation Example were stored at 50°C. After the respective periods of one week and two weeks, the heat stability of the compounds was measured by determining their level of decomposition through the use of liquid chromatography.

[2] = tested on: Morganella morganii ATCC8076h; assay: MIC, doubling dilution method (NCCLS), Muller-Hinton agar; assay type: cell-based; details: 20 hours at 37°C
Procedure: (§1) Antibiotic activities of the crystalline compound obtained in Example 1 were evaluated by way of determining the minimum inhibitory concentration(MIC) for the microorganisms listed in Table 2 in vitro.
(§2) The […] was determined in accordance with the doubling dilution method(NCCLS). After the test compound was dispersed in a Muller-Hinton agar medium, the medium was inoculated with 2µl of a test strain having 10⁷ CFU/ml and, then, incubated for 20 hours at 37°C.
(§3) For comparison, antibiotic abilities of the amorphous formula(I) cephalosporin obtained in Preparation Example were also determined as above; and are shown in Table 2.

[3] = tested on: Pseudomonas aeruginosa ATCC25619; assay: as above; assay type: cell-based; details: 20 hours at 37°C
Procedure: as §1, §2, §3

[4] = tested on: Escherichia coli ATCC25922; assay: as above; assay type: cell-based; details: 20 hours at 37°C
Procedure: as §1, §2, §3

[5] = tested on: Shigella flexneri ATCC11836; assay: as above; assay type: cell-based; details: 20 hours at 37°C
Procedure: as §1, §2, §3

[6] = tested on: Bacillus cereus ATCC11778; assay: as above; assay type: cell-based; details: 20 hours at 37°C
Procedure: as §1, §2, §3

[7] = tested on: Providencia rettgeri ATCC9250; assay: as above; assay type: cell-based; details: 20 hours at 37°C
Procedure: as §1, §2, §3

[8] = tested on: Serratia marcescens ATCC27117; assay: as above; assay type: cell-based; details: 20 hours at 37°C
Procedure: as §1, §2, §3

[9] = tested on: Streptococcus epidermidis ATCC12228; assay: as above; assay type: cell-based; details: 20 hours at 37°C
Procedure: as §1, §2, §3

[10] = tested on: Escherichia coli ATCC10536; assay: as above; assay type: cell-based; details: 20 hours at 37°C
Procedure: as §1, §2, §3

[11] = tested on: Staphylococcus aureus ATCC10537; assay: as above; assay type: cell-based; details: 20 hours at 37°C
Procedure: as §1, §2, §3

[12] = tested on: Micrococcus luteus ATCC9341; assay: as above; assay type: cell-based; details: 20 hours at 37°C
Procedure: as §1, §2, §3

[13] = tested on: Citrobacter freundii ATCC8090; assay: as above; assay type: cell-based; details: 20 hours at 37°C
Procedure: as §1, §2, §3

[14] = tested on: Proteus mirabilis ATCC25933; assay: as above; assay type: cell-based; details: 20 hours at 37°C
Procedure: as §1, §2, §3

[15] = tested on: Staphylococcus aureus ATCC6538p; assay: as above; assay type: cell-based; details: 20 hours at 37°C
Procedure: as §1, §2, §3

[16] = tested on: Shigella sonnei ATCC11060; assay: as above; assay type: cell-based; details: 20 hours at 37°C
Procedure: as §1, §2, §3

[17] = tested on: Pseudomonas aeruginosa ATCC10145; assay: as above; assay type: cell-based; details: 20 hours at 37°C
Procedure: as §1, §2, §3

[18] = tested on: Enterobacter aerogenes ATCC29751; assay: as above; assay type: cell-based; details: 20 hours at 37°C
Procedure: as §1, §2, §3

[19] = tested on: Salmonella typhimurium ATCC14028; assay: as above; assay type: cell-based; details: 20 hours at 37°C
Procedure: as §1, §2, §3

[20] = tested on: Enterobacter cloacae ATCC27508; assay: as above; assay type: cell-based; details: 20 hours at 37°C
Procedure: as §1, §2, §3

[21] = tested on: Streptococcus faecalis ATCC29212; assay: as above; assay type: cell-based; details: 20 hours at 37°C
Procedure: as §1, §2, §3

[22] = tested on: Pseudomonas aeruginosa ATCC27853; assay: as above; assay type: cell-based; details: 20 hours at 37°C
Procedure: as §1, §2, §3

[23] = tested on: Proteus vulgaris ATCC6059; assay: as above; assay type: cell-based; details: 20 hours at 37°C
Procedure: as §1, §2, §3

[24] = tested on: Acinetobacter calcoaceticus ATCC15473; assay: as above; assay type: cell-based; details: 20 hours at 37°C
Procedure: as §1, §2, §3

[25] = tested on: Klebsiella pneumoniae ATCC10031; assay: as above; assay type: cell-based; details: 20 hours at 37°C
Procedure: as §1, §2, §3

[26] = tested on: Bacillus megaterium ATTCC9885; assay: as above; assay type: cell-based; details: Priestia megaterium, 20 hours at 37°C
Procedure: as §1, §2, §3

SMILES | Decomposition Rate ([1]; storage period (50°C): 0) | Decomposition Rate ([1]; storage period (50°C): 1 week) | Decomposition Rate ([1]; storage period (50°C): 2 week) | MIC [3] | MIC [4] | MIC [8] | MIC [10] | MIC [13] | MIC [16] | MIC [18] | MIC [19] | MIC [22] | MIC [23] | MIC [24] | MIC [25] | further results
Cc1c(N)nc(SCC2=C(C(=O)[O-])N3C(=O)C(NC(=O)/C(=N\OC(C)(C)C(=O)O)c4csc(N)n4)[C@H]3SC2)[n+](N)c1N (stereo partly shown) [Amorphous Compound, 7-[(Z)-2-(2aminothiazole-4-yl)-2-(2-carboxyprop-2-oxyimino)acetamido]-3-(5-methyl-1,4,6-triamino-pyrimidinium-2-yl)thiomethyl-3-cephem-4-carboxylate, reference compound] | 0% | 4.2% | 5.2% | 2 µg/mL (≈ 3.13 µM) | 0.13 µg/mL (≈ 0.204 µM) | 0.13 µg/mL (≈ 0.204 µM) | 0.063 µg/mL (≈ 0.0986 µM) | 0.063 µg/mL (≈ 0.0986 µM) | 0.063 µg/mL (≈ 0.0986 µM) | 1 µg/mL (≈ 1.57 µM) | 0.13 µg/mL (≈ 0.204 µM) | 2 µg/mL (≈ 3.13 µM) | 0.063 µg/mL (≈ 0.0986 µM) | 4 µg/mL (≈ 6.26 µM) | 0.063 µg/mL (≈ 0.0986 µM) | MIC [2]: <=0.008 mcg/ml; MIC [5]: 0.031 µg/mL (≈ 0.0485 µM); MIC [6]: 128 µg/mL (≈ 200 µM); MIC [7]: <=0.008 mcg/ml; MIC [9]: 2 µg/mL (≈ 3.13 µM); MIC [11]: 2 µg/mL (≈ 3.13 µM); MIC [12]: 0.5 µg/mL (≈ 0.783 µM); MIC [14]: 0.031 µg/mL (≈ 0.0485 µM); MIC [15]: 4 µg/mL (≈ 6.26 µM); MIC [17]: 2 µg/mL (≈ 3.13 µM); MIC [20]: 0.016 µg/mL (≈ 0.0251 µM); MIC [21]: >128 µg/mL
Cc1c(N)nc(SCC2=C(C(=O)[O-])N3C(=O)C(NC(=O)/C(=N\OC(C)(C)C(=O)O)c4csc(N)n4)[C@H]3SC2)[n+](N)c1N (stereo partly shown) [Test Compound, 7-[(Z)-2-(2-aminothiazole-4-yl)-2-(2-carboxyprop-2-oxyimino)acetamido]-3-(5-methyl-1,4,6-triaminopyrimidinium-2-yl)thiomethyl-3-cephem-4-carboxylate] | 0% | 0.4% | 0.9% | 0.5 µg/mL (≈ 0.783 µM) | 0.031 µg/mL (≈ 0.0485 µM) | 0.063 µg/mL (≈ 0.0986 µM) | 0.031 µg/mL (≈ 0.0485 µM) | 0.016 µg/mL (≈ 0.0251 µM) | 0.031 µg/mL (≈ 0.0485 µM) | 0.25 µg/mL (≈ 0.391 µM) | 0.063 µg/mL (≈ 0.0986 µM) | 0.5 µg/mL (≈ 0.783 µM) | 0.031 µg/mL (≈ 0.0485 µM) | 1 µg/mL (≈ 1.57 µM) | 0.016 µg/mL (≈ 0.0251 µM) | MIC ([2]; read-out: MIC): ≤ 0.008 µg/mL; MIC ([5]; Shigella flexneri, ATCC11836, 20 h, read-out: MIC): 0.016 µg/mL (≈ 0.0251 µM); MIC ([6]; Bacillus cereus, ATCC11778, 20 h, read-out: MIC): 64 µg/mL (≈ 100 µM); MIC ([7]; read-out: MIC): ≤ 0.008 µg/mL; MIC ([9]; Streptococcus, ATCC12228, 20 h, read-out: MIC): 1 µg/mL (≈ 1.57 µM); MIC ([11]; read-out: MIC): 2 µg/mL (≈ 3.13 µM); MIC ([12]; Micrococcus luteus, ATCC9341, 20 h, read-out: MIC): 0.25 µg/mL (≈ 0.391 µM); MIC ([14]; Proteus mirabilis, ATCC25933, 20 h, read-out: MIC): 0.016 µg/mL (≈ 0.0251 µM); MIC ([15]; read-out: MIC): 4 µg/mL (≈ 6.26 µM); MIC ([17]; Pseudomonas aeruginosa, ATCC10145, 20 h, read-out: MIC): 1 µg/mL (≈ 1.57 µM); MIC ([20]; Enterobacter cloacae, ATCC27508, 20 h, read-out: MIC): ≤ 0.008 µg/mL; MIC ([21]; Enterococcus faecalis, read-out: MIC): > 128 µg/mL; MIC [26]: 0.13 µg/mL (≈ 0.204 µM)
